This note sets out measurements from ChEMBL document CHEMBL2440004, “The influence of saponins on cell membrane cholesterol” (Bioorg Med Chem, 2013).

The test system of test [1] is ECV-304. Kind of test: Effect on [3H]cholesterol liberation from cell membrane of human ECV304 cells after 1 hr by liquid scintillation counting. The format is functional, cell membranes.
In test [2] the test system is ECV-304. Kind of test: Reduction in [3H]cholesterol uptake in human ECV304 cells after 1 hr by liquid scintillation counting. The class given is functional, cell-based.
For test [3], the system named is ECV-304. Kind of test: Cytotoxicity against human ECV304 cells after 72 hrs by MTT assay. Particulars: ECV-304, 72 h. The class given is functional, cell-based. In general terms: Tetrazolium dyes change colour on reduction, which living cells bring about.
Test [4] deals with ECV-304. Description: Membrane toxicity against human ECV304 cells after 2 hrs by LDH release assay. The format is functional, cell-based. The following applies: ECV-304, 2 h. Background: LDH leaks from cells whose membrane has failed.
In test [5] the test system is ECV-304. Kind of test: Reduction in [3H]cholesterol content in endosomal/lysosomal membrane of human ECV304 cells at 5 uM after 1 hr by liquid scintillation counting. The class given is functional, cell membranes.
The test system of test [6] is ECV-304. Kind of test: Reduction in [3H]cholesterol content in cytoplasm membrane of human ECV304 cells at 5 uM after 1 hr by liquid scintillation counting. The format is functional, cell membranes.

Usually IC50 stands for the concentration that inhibits the measured activity by half. Low readings indicate higher potency, high ones lower potency.

SMILES strings stand for the structures. The source made the active and inactive calls. No cut-off for these calls is given here.

Turning to `C[C@@H]1O[C@H](O[C@H]2[C@@H](OC(=O)[C@]34CCC(C)(C)C[C@H]3C3=CC[C@@H]5[C@@]6(C)CC[C@H](O[C@@H]7O[C@H](C(=O)O)[C@@H](O)[C@H](O[C@H]8OC[C@@H](O)[C@H](O)[C@H]8O)[C@H]7O[C@@H]7O[C@H](CO)[C@H](O)[C@H](O)[C@H]7O)[C@@](C)(C=O)[C@@H]6CC[C@@]5(C)[C@]3(C)C[C@H]4O)O[C@H](C)[C@H](O)[C@@H]2O)[C@H](O)[C@H](O[C@@H]2O[C@H](CO)[C@@H](O)[C@H](O)[C@H]2O)[C@H]1O[C@H]1OC[C@@H](O)[C@H](O)[C@H]1O`, the outcome in test [1] was Active. The Activity entry in test [2] is “Dose-dependent effect”. In test [3], this compound had a half-maximal inhibitory concentration (IC50) of 8 µM.
With `C[C@H]1O[C@H](O[C@H]2[C@H](O[C@H]3CC[C@]4(C)[C@H]5CC=C6[C@@H]7CC(C)(C)CC[C@]7(CO)[C@H](O)C[C@@]6(C)[C@]5(C)CC[C@H]4C3(C)C)O[C@H](C(=O)O)[C@H](O[C@H]3O[C@@H](CO[C@@H]4O[C@H](CO)[C@@H](O)[C@H](O)[C@H]4O)[C@@H](O)[C@@H](O)[C@@H]3O)[C@@H]2O)[C@@H](O)[C@@H](O)[C@@H]1O`, the result in test [1] was Active. Moreover, the Activity result in test [2] was “Dose-dependent effect”. In addition, the half-maximal inhibitory concentration (IC50) in test [3] came to 13 µM; in test [4], 58 µM.
For `COC(=O)[C@@]1(C)CC[C@]2(C(=O)O[C@@H]3O[C@H](CO)[C@@H](O)[C@H](O)[C@H]3O)CC[C@]3(C)C(=CC[C@@H]4[C@@]5(C)CC[C@H](O[C@@H]6O[C@H](C(=O)O)[C@@H](O)[C@H](O)[C@H]6O)C(C)(C)[C@@H]5CC[C@]43C)[C@@H]2C1`, the outcome in test [1] and in test [2] was inactive. The compound also yielded an IC50 in test [3] above 100 µM.
As for `CC1(C)[C@@H](O[C@H]2O[C@H](C(=O)O)[C@@H](O)[C@H](O)[C@H]2O[C@@H]2O[C@H](C(=O)O)[C@@H](O)[C@H](O)[C@H]2O)CC[C@]2(C)[C@H]3C(=O)C=C4[C@@H]5C[C@@](C)(C(=O)O)CC[C@]5(C)CC[C@@]4(C)[C@]3(C)CC[C@@H]12` [GLYCYRRHIZIN], the outcome in test [1] and in test [2] was inactive. The IC50 in test [3] was above 119 µM; in test [4], above 238 µM.
Consider `CC[C@H](CC[C@@H](C)[C@H]1CC[C@H]2[C@@H]3CC=C4C[C@@H](O)CC[C@]4(C)[C@H]3CC[C@]12C)C(C)C`, for which the outcome in test [1] and in test [2] was inactive.
As to `C[C@H]1O[C@@H](O[C@H]2[C@H](O)[C@@H](O[C@H]3CC[C@]4(C)[C@H]5CC=C6[C@@H]7CC(C)(C)CC[C@]7(C(=O)O[C@@H]7O[C@H](CO[C@@H]8OC[C@](O)(CO)[C@H]8O)[C@@H](O)[C@H](O)[C@H]7O)CC[C@@]6(C)[C@]5(C)CC[C@H]4C3(C)C)O[C@@H](C(=O)O)[C@@H]2O[C@@H]2OC[C@@H](O)[C@H](O)[C@H]2O)[C@@H](O)[C@@H](O)[C@@H]1O`, the result in test [1] and in test [2] was inactive. Also, in test [3], the IC50 is above 100 µM.
For the compound `C[C@@H]1O[C@@H](O[C@H]2[C@@H](O)[C@H](O[C@H]3O[C@@H](C)[C@H](O[C@H]4OC[C@@H](O)[C@H](O[C@H]5OC[C@@H](O)[C@H](O)[C@H]5O)[C@H]4O)[C@@H](O)[C@H]3O)[C@H](OC(=O)[C@]34CCC(C)(C)C[C@H]3C3=CC[C@@H]5[C@@]6(C)CC[C@H](O[C@@H]7O[C@H](C(=O)O)[C@@H](O)[C@H](O[C@@H]8OC[C@H](O)[C@@H](O)[C@@H]8O)[C@H]7O[C@@H]7O[C@H](CO)[C@H](O)[C@H](O)[C@H]7O)[C@@](C)(C=O)[C@@H]6CC[C@@]5(C)[C@]3(C)CC4)O[C@H]2C)[C@@H](O)[C@H](O)[C@H]1O`, the outcome in test [5] was inactive. Moreover, the result in test [6] and in test [1] was Active. Also, in test [2], the Activity entry was “Dose-dependent effect”. For the same compound, the IC50 in test [3] was found to be 9 µM; in test [4], 21 µM.
As to `C[C@@H]1O[C@@H](O[C@H]2[C@H](O[C@H]3CC[C@@]4(C)[C@@H](CC[C@]5(C)[C@@H]4CC=C4[C@@H]6CC(C)(C)CC[C@]6(C(=O)O)CC[C@]45C)[C@]3(C)CO)OC[C@H](O)[C@@H]2O)[C@H](O)[C@H](O)[C@H]1O`, the result in test [1] was inactive. In test [2], the Activity entry was “Dose-dependent effect”.
In the case of `C[C@@H]1O[C@@H](O[C@H]2[C@H](O[C@H]3CC[C@@]4(C)[C@@H](CC[C@]5(C)[C@@H]4CC=C4[C@@H]6CC(C)(C)CC[C@]6(C(=O)O[C@@H]6O[C@H](CO[C@@H]7O[C@H](CO)[C@@H](O[C@@H]8O[C@@H](C)[C@H](O)[C@@H](O)[C@H]8O)[C@H](O)[C@H]7O)[C@@H](O)[C@H](O)[C@H]6O)CC[C@]45C)[C@]3(C)CO)OC[C@H](O)[C@@H]2O)[C@H](O)[C@H](O)[C@H]1O` [KALOPANAXSAPONIN B], the outcome in test [1] and in test [2] was inactive. Moreover, the 50% inhibitory concentration (IC50) in test [3] and in test [4] was above 164 µM each time.
